We go through 44 compounds from ChEMBL document CHEMBL1138974 (Bioorg Med Chem Lett, 2006).

Tested on in one series: not listed separately
As to the kind of experiment: Intrinsic clearance in mouse microsome. The settings on record: microsomes. Format: ADME.
As for `O=C1NCC(c2ccc(F)cc2)C12CCN(C1CCCCC1(O)c1ccccc1F)CC2` (single isomer, unassigned; diastereomer 4), the microsomal CLint was 39 µL/min/mg.
As for `O=C1NCC(c2ccc(F)cc2)C12CCN(C1CCCCC1(O)c1cccc(F)c1)CC2` (single isomer, unassigned; diastereomer 2), the microsomal CLint came out at 16 µL/min/mg.

A further series has as its target T1, Sodium- and chloride-dependent glycine transporter 1 (Homo sapiens, UniProt P48067).
T1 sequence (P48067 whole entry): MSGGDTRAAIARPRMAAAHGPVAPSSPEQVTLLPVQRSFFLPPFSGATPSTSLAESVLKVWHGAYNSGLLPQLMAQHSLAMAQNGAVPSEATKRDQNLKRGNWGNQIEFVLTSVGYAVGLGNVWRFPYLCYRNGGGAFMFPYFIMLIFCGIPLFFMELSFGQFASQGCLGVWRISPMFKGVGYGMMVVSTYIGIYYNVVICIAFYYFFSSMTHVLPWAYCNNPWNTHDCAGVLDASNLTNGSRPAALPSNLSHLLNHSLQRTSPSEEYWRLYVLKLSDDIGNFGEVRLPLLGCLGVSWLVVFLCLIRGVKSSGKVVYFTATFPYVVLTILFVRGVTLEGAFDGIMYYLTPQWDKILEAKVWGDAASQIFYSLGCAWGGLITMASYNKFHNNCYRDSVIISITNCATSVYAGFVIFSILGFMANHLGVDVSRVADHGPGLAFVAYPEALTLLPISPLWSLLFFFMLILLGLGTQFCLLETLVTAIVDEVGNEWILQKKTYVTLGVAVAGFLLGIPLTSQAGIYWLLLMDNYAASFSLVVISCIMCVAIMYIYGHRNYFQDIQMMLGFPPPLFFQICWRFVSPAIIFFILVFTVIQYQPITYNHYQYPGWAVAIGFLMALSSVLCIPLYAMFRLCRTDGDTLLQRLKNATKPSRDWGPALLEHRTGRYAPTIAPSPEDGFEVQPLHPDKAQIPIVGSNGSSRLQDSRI
The experiment in a line: Inhibition of [3H]glycine uptake at human GlyT1 by radiometric assay.
Conditions: not given
As to `O=C1NCC(c2ccc(F)cc2)C12CCN(C1CCCCC1(O)c1ccccc1OC(F)(F)F)CC2` (stereo not given), it took 1.39 µM to reach a half-maximal effect (EC50).
The same measure, in the same setting: next, `Cc1ccc(C2(O)CCCCC2N2CCC3(CC2)C(=O)NCC3c2ccc(F)cc2)cc1` (single isomer, unassigned; diastereomer 3): 0.437 µM.
Same read-out and setting: next, `Cc1ccccc1C1(O)CCCCC1N1CCC2(CC1)C(=O)NCC2c1ccc(F)cc1` (single isomer, unassigned; diastereomer 4): 0.069 µM.
On the same count and under the same terms, for `Cc1ccc(C2(O)CCCCC2N2CCC3(CC2)C(=O)NCC3c2ccc(F)cc2)cc1` (single isomer, unassigned; diastereomer 4) the value was 0.132 µM; for `Cc1ccccc1C1(O)CCCCC1N1CCC2(CC1)C(=O)NCC2c1ccc(F)cc1` (single isomer, unassigned; diastereomer 1), 0.596 µM; for `O=C1NCC(c2ccccc2)C12CCN(C1CCCCC1(O)c1cccc(F)c1)CC2` (single isomer, unassigned; diastereomer 3), 0.127 µM.
Regarding `COc1ccc(C2(O)CCCCC2N2CCC3(CC2)C(=O)NCC3c2ccccc2)cc1` (stereo not given), it took 4.48 µM to reach a half-maximal effect (EC50).
Still for that read-out and setting: for `CS(=O)(=O)c1ccc(C2(O)CCCCC2N2CCC3(CC2)C(=O)NCC3c2ccc(F)cc2)cc1` (stereo not given) the value was 18.6 µM; for `COc1ccc(C2(O)CCCCC2N2CCC3(CC2)C(=O)NCC3c2ccc(F)cc2)cc1` (single isomer, unassigned; diastereomer 2), 1.18 µM; for `O=C1NCC(c2ccccc2)C12CCN(C1CCCCC1(O)c1cccc(F)c1)CC2` (single isomer, unassigned; diastereomer 4), 5.3 µM.
Compound `Cc1cccc(C2(O)CCCCC2N2CCC3(CC2)C(=O)NCC3c2ccc(F)cc2)c1` (single isomer, unassigned; diastereomer 2) displayed a 50% effective concentration (EC50) of 10.7 µM.
For `O=C1NCC(c2ccc(F)cc2)C12CCN(C1CCCCC1(O)c1ccccc1F)CC2` (single isomer, unassigned; diastereomer 4), the EC50 came to 0.069 µM.
The same measure, in the same setting: for `O=C1NCC(c2ccc(F)cc2)C12CCN(C1CCCCC1(O)c1cccc(F)c1)CC2` (single isomer, unassigned; diastereomer 2) the value was 0.077 µM.
Still for that read-out and setting: next, `O=C1NCC(c2ccc(F)cc2)C12CCN(C1CCCCC1(O)c1cccc(F)c1)CC2` (single isomer, unassigned; diastereomer 4): 0.646 µM.
The compound `CC(C)(C)c1ccc(C2(O)CCCCC2N2CCC3(CC2)C(=O)NCC3c2ccc(F)cc2)cc1` (single isomer, unassigned; diastereomer 1) yielded an EC50 greater than 30 µM.
On the same count and under the same terms, next, `COc1ccc(C2(O)CCCCC2N2CCC3(CC2)C(=O)NCC3c2ccc(F)cc2)cc1` (single isomer, unassigned; diastereomer 1): 3.3 µM; `O=C1NCC(c2ccc(F)cc2)C12CCN(C1CCCCC1(O)c1ccccc1F)CC2` (single isomer, unassigned; diastereomer 1): 0.596 µM; `COc1cccc(C2(O)CCCCC2N2CCC3(CC2)C(=O)NCC3c2ccccc2)c1` (stereo not given): greater than 30 µM.
As for `O=C1NCC(c2ccc(F)cc2)C12CCN(C1CCCCC1(O)c1cccc(F)c1)CC2` (single isomer, unassigned; diastereomer 1), the EC50 was found to be 0.095 µM.
In the case of `Cc1ccccc1C1(O)CCCCC1N1CCC2(CC1)C(=O)NCC2c1ccc(F)cc1` (single isomer, unassigned; diastereomer 3), the midpoint of the response, the EC50, lay at 17.7 µM.
The same measure, in the same setting: for `N#Cc1ccc(C2(O)CCCCC2N2CCC3(CC2)C(=O)NCC3c2ccc(F)cc2)cc1` (mixture of isomers) the value was 1.95 µM.
Still for that read-out and setting: next, `Cc1cccc(C2(O)CCCCC2N2CCC3(CC2)C(=O)NCC3c2ccc(F)cc2)c1` (single isomer, unassigned; diastereomer 1): 2.64 µM.
In turn, `O=C1NCC(c2ccc(F)cc2)C12CCN(C1CCCCC1(O)c1cccc(Cl)c1)CC2` (single isomer, unassigned; diastereomer 2) gave an EC50 of 2.34 µM.
`CC(C)(C)c1ccc(C2(O)CCCCC2N2CCC3(CC2)C(=O)NCC3c2ccc(F)cc2)cc1` (single isomer, unassigned; diastereomer 2) yielded an EC50 greater than 30 µM.
The same measure, in the same setting: for `O=C1NCC(c2ccccc2)C12CCN(C1CCCCC1(O)c1cccc(F)c1)CC2` (single isomer, unassigned; diastereomer 2) the value was 2.6 µM.
Still for that read-out and setting: next, `O=C1NCC(c2ccc(F)cc2)C12CCN(C1CCCCC1(O)c1ccccc1F)CC2` (single isomer, unassigned; diastereomer 2): 0.11 µM; `O=C1NCC(c2ccccc2)C12CCN(C1CCCCC1(O)c1cccc(F)c1)CC2` (single isomer, unassigned; diastereomer 1): 0.158 µM; `O=C1NCC(c2ccc(F)cc2)C12CCN(C1CCCCC1(O)c1ccc(C(F)(F)F)cc1)CC2` (stereo not given): 1.31 µM.
`O=C1NCC(c2ccc(F)cc2)C12CCN(C1CCCCC1(O)c1cccc(Cl)c1)CC2` (stereo in doubt; form 1) showed an EC50 of 0.118 µM.
Still for that read-out and setting: next, `Cc1ccc(C2(O)CCCCC2N2CCC3(CC2)C(=O)NCC3c2ccc(F)cc2)cc1` (single isomer, unassigned; diastereomer 2): greater than 30 µM; `COc1cccc(C2(O)CCCCC2N2CCC3(CC2)C(=O)NCC3c2ccc(F)cc2)c1` (single isomer, unassigned; diastereomer 2): 2.6 µM.
On the same count and under the same terms, next, `Cc1ccccc1C1(O)CCCCC1N1CCC2(CC1)C(=O)NCC2c1ccc(F)cc1` (stereo in doubt): 0.11 µM; `COc1ccc(C2(O)CCCCC2N2CCC3(CC2)C(=O)NCC3c2ccc(F)cc2)cc1` (stereo in doubt): 0.158 µM.
`N#Cc1ccc(C2(O)CCCCC2N2CCC3(CC2)C(=O)NCC3c2ccc(F)cc2)cc1` (single isomer, unassigned; diastereomer 2) came in with an EC50 of 11.3 µM.
Same read-out and setting: for `COc1ccc(C2(O)CCCCC2N2CCC3(CC2)C(=O)NCC3c2ccc(F)cc2)cc1` (single isomer, unassigned; diastereomer 3) the value was 1.13 µM; for `O=C1NCN(c2ccccc2)C12CCN(C1CCCCC1(O)c1ccccc1)CC2` (stereo not given), 0.044 µM; for `O=C1NCC(c2ccc(F)cc2)C12CCN(C1CCCCC1(O)c1cccc(Cl)c1)CC2` (stereo in doubt; form 2), 0.073 µM.
On the same count and under the same terms, for `O=C1NCC(c2ccccc2)C12CCN(C1CCCCC1(O)c1ccc(F)cc1)CC2` (single isomer, unassigned; diastereomer 2) the value was 0.825 µM; for `COc1cccc(C2(O)CCCCC2N2CCC3(CC2)C(=O)NCC3c2ccc(F)cc2)c1` (stereo in doubt), 0.158 µM; for `COc1cccc(C2(O)CCCCC2N2CCC3(CC2)C(=O)NCC3c2ccc(F)cc2)c1` (single isomer, unassigned; diastereomer 4), 5.3 µM.
Still for that read-out and setting: next, `O=C1NCC(c2ccc(F)cc2)C12CCN(C1CCCCC1(O)c1cccc(Cl)c1)CC2` (single isomer, unassigned; diastereomer 1): 6.25 µM.
As to `COc1cccc(C2(O)CCCCC2N2CCC3(CC2)C(=O)NCC3c2ccc(F)cc2)c1` (single isomer, unassigned; diastereomer 3), the EC50 amounted to 0.127 µM.
In turn, `O=C1NCC(c2ccc(F)cc2)C12CCN(C1CCCCC1(O)c1ccccc1F)CC2` (stereo in doubt) displayed an EC50 of 1.77 µM.
As for `Cc1ccc(C2(O)CCCCC2N2CCC3(CC2)C(=O)NCC3c2ccc(F)cc2)cc1` (single isomer, unassigned; diastereomer 1), the EC50 worked out at 0.42 µM.

In the next series the target is Nociceptin receptor (Homo sapiens, UniProt P41146). The experiment in a line: Displacement of [3H]NOP from human NOP receptors expressed in HEK293 cells. The series is classed as cell-based. The settings on record: hek293.
Nociceptin receptor, sequence (P41146 whole entry): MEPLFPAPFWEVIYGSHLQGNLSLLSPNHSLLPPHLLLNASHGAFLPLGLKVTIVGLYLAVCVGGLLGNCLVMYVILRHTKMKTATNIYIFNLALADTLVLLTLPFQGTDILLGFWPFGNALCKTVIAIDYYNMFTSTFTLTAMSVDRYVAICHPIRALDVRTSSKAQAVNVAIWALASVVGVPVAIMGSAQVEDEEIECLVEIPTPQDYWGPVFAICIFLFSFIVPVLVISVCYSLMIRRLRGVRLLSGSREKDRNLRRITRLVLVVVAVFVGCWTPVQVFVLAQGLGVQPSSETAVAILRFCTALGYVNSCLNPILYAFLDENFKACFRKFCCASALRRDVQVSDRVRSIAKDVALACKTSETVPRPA
In the case of `O=C1NCC(c2ccccc2)C12CCN(C1CCCCC1(O)c1ccc(F)cc1)CC2` (single isomer, unassigned; diastereomer 2), the IC50 was greater than 10 µM.

Tested on in a further series: not listed separately
The experiment in a line: Intrinsic clearance in human microsome. The series is classed as ADME. The settings on record: microsomes.
For `O=C1NCC(c2ccc(F)cc2)C12CCN(C1CCCCC1(O)c1ccccc1F)CC2` (single isomer, unassigned; diastereomer 4), the microsomal CLint came to 28 µL/min/mg.
On the same count and under the same terms, next, `O=C1NCC(c2ccc(F)cc2)C12CCN(C1CCCCC1(O)c1cccc(F)c1)CC2` (single isomer, unassigned; diastereomer 2): 11 µL/min/mg.

Another series addresses T2, Sodium- and chloride-dependent glycine transporter 2 (Homo sapiens, UniProt Q9Y345).
T2 sequence (Q9Y345 whole entry): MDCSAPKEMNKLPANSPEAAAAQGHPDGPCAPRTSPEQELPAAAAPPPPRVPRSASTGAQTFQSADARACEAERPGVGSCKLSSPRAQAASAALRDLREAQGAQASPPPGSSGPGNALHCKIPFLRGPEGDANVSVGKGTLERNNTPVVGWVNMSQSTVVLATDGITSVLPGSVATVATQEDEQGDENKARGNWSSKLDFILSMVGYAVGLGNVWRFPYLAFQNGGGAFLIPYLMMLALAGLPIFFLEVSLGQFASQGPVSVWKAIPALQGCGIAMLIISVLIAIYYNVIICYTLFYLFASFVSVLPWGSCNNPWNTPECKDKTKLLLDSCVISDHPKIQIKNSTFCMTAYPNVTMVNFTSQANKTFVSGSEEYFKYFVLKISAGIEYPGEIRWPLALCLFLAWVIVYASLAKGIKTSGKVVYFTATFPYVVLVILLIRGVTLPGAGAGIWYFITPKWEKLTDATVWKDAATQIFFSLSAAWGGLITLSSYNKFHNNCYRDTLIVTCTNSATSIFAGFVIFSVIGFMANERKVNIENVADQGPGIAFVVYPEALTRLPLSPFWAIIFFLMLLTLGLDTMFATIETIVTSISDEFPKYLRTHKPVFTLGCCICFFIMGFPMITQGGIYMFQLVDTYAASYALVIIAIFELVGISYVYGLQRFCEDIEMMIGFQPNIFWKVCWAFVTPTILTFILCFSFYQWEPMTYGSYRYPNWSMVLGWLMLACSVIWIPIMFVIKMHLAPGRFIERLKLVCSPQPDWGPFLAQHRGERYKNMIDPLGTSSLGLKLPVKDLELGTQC
The experiment in a line: Inhibition of [3H]glycine uptake at human GlyT2 by radiometric assay.
Conditions: not given
Turning to `O=C1NCN(c2ccccc2)C12CCN(C1CCCCC1(O)c1ccccc1)CC2` (stereo not given), the EC50 came to 72 µM.
